Measurements from patent US6780884B2, “Derivating of tryptamine and analogous compounds and pharmaceutical formulations containing them” (Neurim Pharmaceuticals (1991) Ltd., priority 2000, dated 2004).

Key:
[1] = system: Hippocampal Cell Line (HT22); experiment: Glutamate-induced oxidative toxicity in hippocampal cell line (HT22): mitochondrial membrane potential by JC-1 fluorescence ratio; type: cell-based, mouse; conditions: 10^-7 M compound; for protection against glutamate-mediated damage to the mitochondria (in words) / JC-1 ratio B (+glutamate 5 mM) / JC-1 ratio A (control conditions): HT-22 cells; for protection against glutamate-mediated damage to the mitochondria (in words): 5 mM glutamate; for JC-1 ratio B (+glutamate 5 mM) / JC-1 ratio A (control conditions): 24h, fluorescence ratio 530/590:480/530; for JC-1 ratio A (control conditions): control conditions (no glutamate); for effect on mitochondrial membrane potential of the control cells (in words): HT-22 control cells without glutamate; for JC-1 ratio B/A (%): ratio of +glutamate 5 mM to control conditions
Method: Table 1: Effects of ML Compounds of the Invention on Glutamate-induced Oxidative Toxicity in Hippocampal Cell Line (HT22)
The changes in the mithochondrial membrane potential was assessed using the fluorescent probe 5,5′,6,6′-tetrachloro-1,1′,3,3′-tetraethylbenzimidazolcarbocyanine iodide (JC-1) according to Nuydens et al, 1999, L of Neuroscience; 92, 153-9. Immortalized mouse hipocampal cells (HT-22) were maintained in Dulbecco's modified minimal essential medium (DMEM) supplemented with 10% fetal bovine serum and passaged by trypsinization. Cells (3000 per 96 palte well) were cultured for 24h with DMEM containing 5 mM glutamate and were treated with 10^−7 M of the ML compounds. Cells were then loaded with JC-1 by changing the culture medium to Phosphate buffered saline (PBS) containing 1 g/L glucose and 10 uM JC-1 for 10 mln. at 37° and were washed once. Flouresence was then measured in a plate reader at excitation/emission wavelengths of 480/530 nm and 530/590 nm. The ratio of the fluoresence intensities in the two wavelengths 530/590:480/530 is an indication of the mitochondrial membrane potential. Decrease in this ratio indicates depolarization of the mitochondrial membrane due to damage induced by anoxic or other phathological situations leading to apoptosis of cells.

[2] = system: 125I-Melatonin Binding in Membranes of Hamster Brain; experiment: 125I-Melatonin binding in membranes of hamster brain (competition); conditions: for inhibition of the specific 125I-melatonin binding: 10^-6M; for % bound at competitor concentration 10-6M / 125I-melatonin bound at competitor concentration 10-6M: competitor 10^-6M; for % bound at competitor concentration 10-6M / % bound at competitor concentration 10-7M: relative to competitor concentration 0; for 125I-melatonin bound at competitor concentration 10-6M / 125I-melatonin bound at competitor concentration 10-7M: 125I-melatonin 250 pM, 37° C., 60 min, radioactivity, unit not given; for % bound at competitor concentration 10-7M / 125I-melatonin bound at competitor concentration 10-7M: competitor 10^-7M
Method: ^125I-Melatonin Binding in Membranes of Hamster Brain
2 whole hamster brains were homogenized with Teflon-glass homogenizer in 10 vol/g tissue of ice cold Tris-HCl buffer (50 mmol/L Tris, 5 mmol/L CaCl2, pH=7.4) and spun at 10,000 g for 10 min. the supernatant were spun at 100,000 g for two hours to yield a crude synaptosomal pellet (P2).
Aliquots of suspended P2 (20 ul) were incubated at 37° C. with ^125I-melatonin (250 pM) for 60 mln. in Tris-Hcl buffer in the absence or presence of 1 nM-100 μM test-substances (ML compounds and melatonin). The binding reaction was terminated by the addition of 4 ml ice cold Tris buffer. Membranes were then collected by vacuum filtration using GF/C glass fiber filters and washed with 3×4 ml ice-cold buffer. The filters containing the bound ^125I-melatonin were assayed for the amount of radioactivity in a γ counter. […] ML-29, ML-30 and ML-31 (10^−6M) inhibited (≧20%) the specific ^125I-melatonin binding. ML-27, ML-28 and ML-23 reduced the specific ^125I-melatonin binding to a lesser extent (˜13%).

For `COc1ccc2[nH]cc(CCNc3ccc([N+](=O)[O-])cc3[N+](=O)[O-])c2c1` [ML-23, N-(2,4-dinitrophenyl)-5-methoxytryptamine, reference compound], the “protection against glutamate-mediated damage to the mitochondria (in words)” value (“protection” for short) [1] was “significantly protected”, the “JC-1 ratio B (+glutamate 5 mM)” value [1] was 1.97 and the “JC-1 ratio A (control conditions)” value [1] was 2.19. For the same compound, the “effect on mitochondrial membrane potential of the control cells (in words)” value (shortened to “effect”) [1] was “did not decrease”, the “JC-1 ratio B/A (%)” value [1] was 90% and the “inhibition of the specific 125I-melatonin binding” value (from here on “inhibition”) [2] was ~13%. The “% bound at competitor concentration 10-6M” value [2] was 87%, the “125I-melatonin bound at competitor concentration 10-6M” value [2] was 403 and the “% bound at competitor concentration 10-7M” value [2] was 94%. The “125I-melatonin bound at competitor concentration 10-7M” value [2] was 435.
`O=[N+]([O-])c1ccc(NCCc2c[nH]c3ccccc23)c([N+](=O)[O-])c1` [ML-25, N-(2,4-dinitrophenyl)tryptamine] was tested, and the “protection” value [1] was “significantly protected”, the “JC-1 ratio B (+glutamate 5 mM)” value [1] was 2.01 and the “JC-1 ratio A (control conditions)” value [1] was 2.21. The “effect” value [1] was “did not decrease”, the “JC-1 ratio B/A (%)” value [1] was 91% and the “% bound at competitor concentration 10-6M” value [2] was 91%. The “125I-melatonin bound at competitor concentration 10-6M” value [2] was 390, the “% bound at competitor concentration 10-7M” value [2] was 92% and the “125I-melatonin bound at competitor concentration 10-7M” value [2] was 396.
For `CC(=O)Nc1cc(NCCc2c[nH]c3ccccc23)c([N+](=O)[O-])cc1[N+](=O)[O-]` [ML-26, 2,4-dinitro-5-tryptylaminoacetanilide], the “protection” value [1] was “significantly protected”, the “JC-1 ratio B (+glutamate 5 mM)” value [1] was 2.11 and the “JC-1 ratio A (control conditions)” value [1] was 2.16. For the same compound, the “effect” value [1] was “did not decrease”, the “JC-1 ratio B/A (%)” value [1] was 98% and the “% bound at competitor concentration 10-6M” value [2] was 99%. For the same compound, the “125I-melatonin bound at competitor concentration 10-6M” value [2] was 411, the “% bound at competitor concentration 10-7M” value [2] was 104% and the “125I-melatonin bound at competitor concentration 10-7M” value [2] was 435.
In the case of `Nc1cc(NCCc2c[nH]c3ccccc23)c([N+](=O)[O-])cc1[N+](=O)[O-]` [ML-27, N-(2,4-dinitro-5-aminophenyl)tryptamine], the “protection” value [1] is reported as “significantly protected”, the “JC-1 ratio B (+glutamate 5 mM)” value [1] is reported as 1.83 and the “JC-1 ratio A (control conditions)” value [1] is reported as 1.80. For the same compound, the “effect” value [1] was “decreased”, the “JC-1 ratio B/A (%)” value [1] was 102% and the “inhibition” value [2] was ~13%. For the same compound, the “% bound at competitor concentration 10-6M” value [2] was 87%, the “125I-melatonin bound at competitor concentration 10-6M” value [2] was 426 and the “% bound at competitor concentration 10-7M” value [2] was 92%. The “125I-melatonin bound at competitor concentration 10-7M” value [2] was 448.
For `Cc1ccc2[nH]cc(CCNc3ccc([N+](=O)[O-])cc3[N+](=O)[O-])c2c1` [ML-28, N-(2,4-dinitrophenyl)-5-methyltryptamine], the “protection” value [1] was “did not protect”, the “JC-1 ratio B (+glutamate 5 mM)” value [1] was 2.28 and the “JC-1 ratio A (control conditions)” value [1] was 2.77. The “effect” value [1] was “elevated”, the “JC-1 ratio B/A (%)” value [1] was 82% and the “inhibition” value [2] was ~13%. For the same compound, the “% bound at competitor concentration 10-6M” value [2] was 87%, the “125I-melatonin bound at competitor concentration 10-6M” value [2] was 365 and the “% bound at competitor concentration 10-7M” value [2] was 91%. For the same compound, the “125I-melatonin bound at competitor concentration 10-7M” value [2] was 381.
`CC(=O)Nc1cc(NCCc2c[nH]c3ccc(C)cc23)c([N+](=O)[O-])cc1[N+](=O)[O-]` [ML-29, 2,4-dinitro-5-(5′-methyltryptyl)aminoacetanilide] was tested, and the “protection” value [1] was “without providing protection”, the “JC-1 ratio B (+glutamate 5 mM)” value [1] was 1.79 and the “JC-1 ratio A (control conditions)” value [1] was 2.28. The “effect” value [1] was “decreased”, the “JC-1 ratio B/A (%)” value [1] was 78% and the “% bound at competitor concentration 10-6M” value [2] was 80%. The “125I-melatonin bound at competitor concentration 10-6M” value [2] was 358, the “% bound at competitor concentration 10-7M” value [2] was 90% and the “125I-melatonin bound at competitor concentration 10-7M” value [2] was 404.
For `COc1ccc2[nH]cc(CCNc3cc(NC(C)=O)c([N+](=O)[O-])cc3[N+](=O)[O-])c2c1` [ML-30, 2,4-dinitro-5-(5′-methoxytryptyl)aminoacetanilide], the “protection” value [1] was “significantly protected”, the “JC-1 ratio B (+glutamate 5 mM)” value [1] was 2.13 and the “JC-1 ratio A (control conditions)” value [1] was 1.83. For the same compound, the “effect” value [1] was “decreased”, the “JC-1 ratio B/A (%)” value [1] was 116% and the “% bound at competitor concentration 10-6M” value [2] was 80%. For the same compound, the “125I-melatonin bound at competitor concentration 10-6M” value [2] was 409, the “% bound at competitor concentration 10-7M” value [2] was 96% and the “125I-melatonin bound at competitor concentration 10-7M” value [2] was 488.
`Cc1ccc2[nH]cc(CCNc3cc(N)c([N+](=O)[O-])cc3[N+](=O)[O-])c2c1` [ML-31, N-(2,4-dinitro-5-aminophenyl)-5′-methyltryptamine] was tested, and the “protection” value [1] was “without providing protection”, the “JC-1 ratio B (+glutamate 5 mM)” value [1] was 1.57 and the “JC-1 ratio A (control conditions)” value [1] was 1.93. For the same compound, the “effect” value [1] was “decreased”, the “JC-1 ratio B/A (%)” value [1] was 81% and the “% bound at competitor concentration 10-6M” value [2] was 72%. For the same compound, the “125I-melatonin bound at competitor concentration 10-6M” value [2] was 334, the “% bound at competitor concentration 10-7M” value [2] was 94% and the “125I-melatonin bound at competitor concentration 10-7M” value [2] was 438.
`COc1ccc2[nH]cc(CCNc3cc(N)c([N+](=O)[O-])cc3[N+](=O)[O-])c2c1` [ML-32, N-(2,4-dinitro-5-aminophenyl)-5′-methoxytryptamine] was tested, and the “protection” value [1] was “without providing protection”, the “JC-1 ratio B (+glutamate 5 mM)” value [1] was 1.76 and the “JC-1 ratio A (control conditions)” value [1] was 2.15. The “effect” value [1] was “decreased”, the “JC-1 ratio B/A (%)” value [1] was 82% and the “% bound at competitor concentration 10-6M” value [2] was 93%. For the same compound, the “125I-melatonin bound at competitor concentration 10-6M” value [2] was 419, the “% bound at competitor concentration 10-7M” value [2] was 90% and the “125I-melatonin bound at competitor concentration 10-7M” value [2] was 408.
`COc1ccc2[nH]cc(CCNC(C)=O)c2c1` [Melatonin, reference compound] was tested, and the “protection” value [1] was “significantly protected”, the “JC-1 ratio B (+glutamate 5 mM)” value [1] was 2.44 and the “JC-1 ratio A (control conditions)” value [1] was 2.48. The “JC-1 ratio B/A (%)” value [1] was 98%, the “inhibition” value [2] was 20% and the “% bound at competitor concentration 10-6M” value [2] was 79%. The “125I-melatonin bound at competitor concentration 10-6M” value [2] was 335, the “% bound at competitor concentration 10-7M” value [2] was 89% and the “125I-melatonin bound at competitor concentration 10-7M” value [2] was 377.
